Tests used:
[1] = target: T1, Ephrin type-B receptor 3 (Homo sapiens) (UniProt P54753); assay: EphB3(h) Eurofins kinase panel; settings: Compound concentration 1.0 uM
T1 sequence (whole entry): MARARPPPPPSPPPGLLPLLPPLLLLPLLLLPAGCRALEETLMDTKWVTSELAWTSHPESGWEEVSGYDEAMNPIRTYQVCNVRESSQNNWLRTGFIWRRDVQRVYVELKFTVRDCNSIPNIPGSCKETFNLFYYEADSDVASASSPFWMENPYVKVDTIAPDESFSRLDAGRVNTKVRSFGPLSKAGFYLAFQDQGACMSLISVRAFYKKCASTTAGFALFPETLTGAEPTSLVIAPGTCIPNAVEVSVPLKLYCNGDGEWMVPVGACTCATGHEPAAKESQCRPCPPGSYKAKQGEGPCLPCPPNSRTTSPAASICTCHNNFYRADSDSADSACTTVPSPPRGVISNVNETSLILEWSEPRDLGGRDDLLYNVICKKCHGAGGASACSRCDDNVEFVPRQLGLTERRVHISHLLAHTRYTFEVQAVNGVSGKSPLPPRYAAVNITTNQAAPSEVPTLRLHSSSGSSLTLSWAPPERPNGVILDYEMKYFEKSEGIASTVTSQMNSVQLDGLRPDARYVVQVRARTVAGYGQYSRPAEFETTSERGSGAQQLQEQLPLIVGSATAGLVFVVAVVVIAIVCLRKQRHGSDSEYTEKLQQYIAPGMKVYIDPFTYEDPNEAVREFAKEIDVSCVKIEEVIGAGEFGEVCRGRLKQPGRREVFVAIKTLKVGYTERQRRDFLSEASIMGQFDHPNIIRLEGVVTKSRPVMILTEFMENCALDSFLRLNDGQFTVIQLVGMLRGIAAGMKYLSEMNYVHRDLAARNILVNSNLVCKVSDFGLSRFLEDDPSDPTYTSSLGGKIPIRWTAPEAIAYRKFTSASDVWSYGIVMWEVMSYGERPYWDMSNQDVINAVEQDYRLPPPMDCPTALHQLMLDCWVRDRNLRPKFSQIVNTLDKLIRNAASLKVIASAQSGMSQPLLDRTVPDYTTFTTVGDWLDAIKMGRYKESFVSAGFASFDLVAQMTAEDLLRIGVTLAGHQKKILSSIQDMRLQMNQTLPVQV

[2] = target: T2, MAP/microtubule affinity-regulating kinase 4 (Homo sapiens) (UniProt Q96L34); assay: MARK4(h) Eurofins kinase panel; settings: Compound concentration 1.0 uM
T2 sequence (whole entry): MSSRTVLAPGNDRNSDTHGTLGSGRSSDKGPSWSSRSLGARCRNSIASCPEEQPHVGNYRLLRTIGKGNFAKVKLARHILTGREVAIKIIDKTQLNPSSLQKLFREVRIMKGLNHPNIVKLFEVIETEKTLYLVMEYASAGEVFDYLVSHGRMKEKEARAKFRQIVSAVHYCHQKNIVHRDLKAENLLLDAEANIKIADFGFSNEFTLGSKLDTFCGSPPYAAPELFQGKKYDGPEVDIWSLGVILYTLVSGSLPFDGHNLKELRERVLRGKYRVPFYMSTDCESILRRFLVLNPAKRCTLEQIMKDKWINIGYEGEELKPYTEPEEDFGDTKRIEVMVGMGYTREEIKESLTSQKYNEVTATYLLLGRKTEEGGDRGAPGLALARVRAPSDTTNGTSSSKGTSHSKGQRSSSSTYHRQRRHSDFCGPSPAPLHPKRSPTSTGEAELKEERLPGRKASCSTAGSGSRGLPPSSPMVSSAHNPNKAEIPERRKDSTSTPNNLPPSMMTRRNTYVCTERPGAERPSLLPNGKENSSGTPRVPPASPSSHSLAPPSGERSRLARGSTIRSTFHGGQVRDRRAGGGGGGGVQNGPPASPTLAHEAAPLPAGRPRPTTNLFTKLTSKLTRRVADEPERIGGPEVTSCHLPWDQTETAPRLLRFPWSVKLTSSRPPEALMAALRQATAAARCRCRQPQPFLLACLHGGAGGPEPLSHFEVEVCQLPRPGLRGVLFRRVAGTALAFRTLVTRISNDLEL

[3] = target: T3, Serine/threonine-protein kinase Nek3 (Homo sapiens) (UniProt P51956); assay: NEK3(h) Eurofins kinase panel; settings: Compound concentration 1.0 uM
T3 sequence (whole entry): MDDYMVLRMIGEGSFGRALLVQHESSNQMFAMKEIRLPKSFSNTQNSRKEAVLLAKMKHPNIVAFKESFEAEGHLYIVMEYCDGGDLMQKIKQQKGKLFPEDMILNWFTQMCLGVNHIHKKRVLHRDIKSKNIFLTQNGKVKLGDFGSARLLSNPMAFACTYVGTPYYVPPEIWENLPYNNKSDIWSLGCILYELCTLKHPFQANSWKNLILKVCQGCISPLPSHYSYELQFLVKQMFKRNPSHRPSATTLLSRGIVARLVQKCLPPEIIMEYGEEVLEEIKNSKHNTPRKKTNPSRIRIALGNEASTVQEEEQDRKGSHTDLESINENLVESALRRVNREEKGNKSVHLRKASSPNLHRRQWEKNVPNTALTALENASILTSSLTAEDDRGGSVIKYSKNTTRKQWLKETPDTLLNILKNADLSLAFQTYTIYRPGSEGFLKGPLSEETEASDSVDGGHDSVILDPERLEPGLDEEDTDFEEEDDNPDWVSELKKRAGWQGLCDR

[4] = target: T4, SNF-related serine/threonine-protein kinase (Homo sapiens) (UniProt Q9NRH2); assay: SNRK(h) Eurofins kinase panel; settings: Compound concentration 1.0 uM
T4 sequence (whole entry): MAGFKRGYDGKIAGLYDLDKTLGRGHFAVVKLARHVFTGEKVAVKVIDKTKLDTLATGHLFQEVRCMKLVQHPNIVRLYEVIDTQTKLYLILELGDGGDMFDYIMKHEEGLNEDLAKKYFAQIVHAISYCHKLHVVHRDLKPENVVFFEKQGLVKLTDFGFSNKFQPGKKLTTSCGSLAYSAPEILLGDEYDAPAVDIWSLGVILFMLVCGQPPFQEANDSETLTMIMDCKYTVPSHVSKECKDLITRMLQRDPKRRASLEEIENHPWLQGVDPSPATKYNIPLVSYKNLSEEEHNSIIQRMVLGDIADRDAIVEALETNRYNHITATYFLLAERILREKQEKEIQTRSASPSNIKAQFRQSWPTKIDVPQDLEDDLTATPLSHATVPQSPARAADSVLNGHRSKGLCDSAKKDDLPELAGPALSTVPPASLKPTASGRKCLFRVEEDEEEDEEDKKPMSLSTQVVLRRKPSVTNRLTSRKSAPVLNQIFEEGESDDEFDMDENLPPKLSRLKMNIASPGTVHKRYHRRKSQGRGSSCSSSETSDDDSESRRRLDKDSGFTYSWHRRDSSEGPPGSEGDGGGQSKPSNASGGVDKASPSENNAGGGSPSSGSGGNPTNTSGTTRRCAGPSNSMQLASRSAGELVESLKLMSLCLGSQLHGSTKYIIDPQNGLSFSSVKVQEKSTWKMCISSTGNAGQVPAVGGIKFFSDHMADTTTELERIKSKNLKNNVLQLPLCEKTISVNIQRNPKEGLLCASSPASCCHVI

SU-DHL10 = assay: SU-DHL-10 cell line Proliferation assay; assay type: functional, Homo sapiens; settings: time 3 day
LNCaP = assay: LNCaP cell line Proliferation assay; assay type: functional, Homo sapiens; settings: time 6 day

Question: Which results are given for CCc1ccccc1C(=O)Nc1n[nH]c2c(C)c(F)c(C3C(C#N)=C(C)N(C)C(C)=C3C#N)cc12 [BAY-3827]?
Answer: % residual kinase activity [1]: 109%; % residual kinase activity [2]: 65%; % residual kinase activity [3]: 102%; % residual kinase activity [4]: 113%; Cell Proliferation IC50 (SU-DHL10): 12.5 µM; Cell Proliferation IC50 (LNCaP): 0.28 µM
